Laboratory results taken from US20250282830A1, “ANTI-VIRAL PEPTIDE COMPOSITIONS AND METHODS TO IMPROVE BIOLOGICAL ACTIVITY THEREOF” (priority 2021, published 2025).
No end group written: not given here.

What was measured:
DENV-1 = test: Plaque reduction neutralization assay, DENV-1; assay type: cell-based, Dengue virus serotype 1; conditions: Vero cells; virus pre-incubated with peptide 1 h at 37° C.; read-out: DENV-1 PRNT50
Protocol: (§1) Vero cells were seeded at 1×10^5 cells per well and incubated overnight. Twofold serial dilutions of peptide were incubated with 200-300 p.f.u. of virus for 1 h at 37° C. Cells were infected with the virus-peptide mixture for 1 h at 37° C. The inoculum was removed and 0.8% (wt/vol) methylcellulose in medium supplemented with 1% FBS was added. After 3-5 days incubation, plates were fixed and analysed for plaques by immunostaining (DENV). For immunostaining, the cells were fixed, followed by incubation with 4G2, a mouse anti-DENV E protein monoclonal antibody (1:2,000 dilution), for 16-20 h. After addition of a secondary antibody, goat anti-mouse IgG (H+L)-HRP conjugate (1:2,000 dilution), the TrueBlue peroxidase substrate (KPL) was added and the optical density was measured at a wavelength of 450 nm. For crystal violet staining, cells were fixed with fixing solution (5% glutaric dialdehyde in Dulbecco's PBS) followed by staining with 0.1% crystal violet in fixing solution. The IC50 value was calculated by comparing the relative number of plaques in peptide-treated samples to virus-only samples using a four-parameter logistic curve fit.

DENV-2 = test: Plaque reduction neutralization assay, DENV-2; assay type: cell-based, Dengue virus serotype 2; conditions: Vero cells; virus pre-incubated with peptide 1 h at 37° C.; read-out: DENV-2 PRNT50
Protocol: as §1

DENV-4 = test: Plaque reduction neutralization assay, DENV-4; assay type: cell-based, Dengue virus serotype 4; conditions: Vero cells; virus pre-incubated with peptide 1 h at 37° C.; read-out: DENV-4 PRNT50
Protocol: as §1

DENV-3 = test: Plaque reduction neutralization assay, DENV-3; assay type: cell-based, Dengue virus serotype 3; conditions: Vero cells; virus pre-incubated with peptide 1 h at 37° C.; read-out: DENV-3 PRNT50
Protocol: as §1

[1] = Time-lapse fluorescence microscopy imaging of peptide-induced vesicle rupture
Protocol: Highly parallel measurements of peptide-induced liposome rupture were conducted by time-lapsed epifluorescence microscopy imaging. An Eclipse Ti-E inverted microscope (Nikon) with a high-pressure mercury lamp, a CFI Plan Apochromat TIRF×60 oil-immersion objective (NA 1.49; Nikon) and an Andor iXon3 897 EMCCD camera (Andor Technology), was utilized for measurements. The samples were illuminated with a mercury lamp (Intenslight C-HGFIE) using a TRITC filter set. Briefly, glass coverslips were assembled into a microfluidic flow cell, and coated with a thin layer of PLL-g-PEG(-biotin), followed by tethering of 0.025 μg ml^−1 liposomes via biotin-neutravidin coupling. Peptide was then added at a volumetric rate of 100 μl min^−1, and micrographs were recorded every 5-30 s depending on the particular experiment. The initial time was defined by when the peptide solution entered the channel inlet. Data processing and analysis were conducted using ImageJ (National Institutes of Health) and Python(x,y) software packages. The diameter of individual liposomes was estimated based on fluorescence intensity values. […]
Using time-lapse fluorescence microscopy imaging, we further investigated the interactions of different versions of Peptides 2 and 4 with tethered vesicles at the single-vesicle level and saw different degrees of vesicle rupture in terms of total extent and speed (FIG. 14).

| Sequence | IC50 (DENV-1) [µM] | IC50 (DENV-2) [µM] | IC50 (DENV-4) [µM] | IC50 (DENV-3) [µM] | Vesicle rupture time, calcein (Cal) dye release ([1]; 100 nM peptide) [min] | Vesicle rupture time, rhodamine (Rh) dye release ([1]; 100 nM peptide) [min] | Vesicle rupture time, calcein (Cal) dye release ([1]; 1000 nM peptide) [min] | Vesicle rupture time, rhodamine (Rh) dye release ([1]; 1000 nM peptide) [min] | Dependence of vesicle rupture on vesicle size (membrane-curvature sensing), single-vesicle analysis ([1]; small and large tethered vesicles) |
| --- | --- | --- | --- | --- | --- | --- | --- | --- | --- |
| AESWLWEVWDWVLHVLSDFKTCLKAKF [Peptide N100] | 0.194 | 0.361 | 1.15 | 1.11 |  |  |  |  |  |
| GSTWLRDIWDWVCTVLSDFRVWLKSKL [Peptide N11N] | 0.591 | 0.924 | 0.306 | 0.289 |  |  |  |  |  |
| SGSWLRDIWEWVCSILTDFKNWLSAKL [Peptide O4O] | 0.365 | 1.21 | 1.56 | 2.19 |  |  |  |  |  |
| SGDWLRIIWDWVCSVVSDFKTWLSAKI [Peptide N6O] | 0.218 | 0.554 | 0.273 | 1.47 |  |  |  |  |  |
| SGSWLRDIWDWICEVLSDFKTWLKAKL [Peptide N1N] | 0.217 | 0.402 | 1.1 | 3.23 |  |  |  |  |  |
| SGSWLRDVWDWICTVLTDFKTWLQSKL [Peptide 2] |  |  |  |  | 5.54 ± 0.30 | 8.69 ± 0.08 | 1.91 ± 0.04 | 3.13 ± 0.12 |  |
| SGSWLRDVWDWVCTILTDFKNWLTSKL [Peptide 3] |  |  |  |  | 4.53 ± 0.17 | 8.41 ± 0.08 | 1.97 ± 0.11 | 2.99 ± 0.03 |  |
| SDDWLRTIWDWVCSVLADFKAWLSAKI [Peptide O7O] | 0.036 | 0.299 | 0.433 | 0.213 |  |  |  |  |  |
| SDDWLRTIWDWVCSVLADFKAWLSAKI (Synthetic_Anti-viral peptide derived from hepatitis C virus NS5A protein) [Peptide 7] |  |  |  |  | 2.41 ± 0.06 | 5.50 ± 0.11 | 1.47 ± 0.01 | 2.13 ± 0.00 |  |
| GSTWLRDIWDWVCTVLSDFRVWLKSKL [Peptide O110] | 0.258 | 1.16 | 0.81 | 0.49 |  |  |  |  |  |
| GSTWLRDIWDWVCTVLSDFRVWLKSKL (Synthetic_Anti-viral peptide derived from hepatitis C virus NS5A protein) [Peptide 11] |  |  |  |  | 4.15 ± 0.04 | 6.00 ± 0.13 | 4.67 ± 0.08 | 4.91 ± 0.38 |  |
| SDDWLRTIWDWVCSVLADFKAWLSAKI [Peptide N7N] | 0.171 | 0.562 | 0.242 | 1.14 |  |  |  |  |  |
| SGSWLRDIWDWICEVLSDFKTWLKAKL (Synthetic_Anti-viral peptide derived from hepatitis C virus NS5A protein) [Peptide 1] |  |  |  |  | 5.95 ± 0.03 | 10.58 ± 0.33 | 4.67 ± 0.32 | 6.13 ± 0.09 |  |
| AESWLWEVWDWVLHVLSDFKTCLKAKF [Peptide N10N] | 0.201 | 0.936 | 0.72 | 0.259 |  |  |  |  |  |
| SGSWLRDVWDWVCTILTDFKNWLTSKL [Peptide N3N] | 0.121 | 0.389 | 0.139 | 0.936 |  |  |  |  |  |
| SDDWLRIIWDWVCSVVSDFKAWLSAKI (Synthetic_Anti-viral peptide derived from hepatitis C virus NS5A protein) [Peptide 5] |  |  |  |  | 4.69 ± 0.22 | 15.25 ± 0.43 | 2.53 ± 0.10 | 11.20 ± 0.17 |  |
| SGSWLRDIWEWVCSILTDFKNWLSAKL [Peptide N4N] | 0.281 | 1.35 | 0.984 | 3.88 |  |  |  |  |  |
| GDDWLHDIWDWVCIVLSDFKTWLSAKI [Peptide O8O] | 0.0692 | 0.188 | 0.709 | 0.444 |  |  |  |  |  |

| Sequence | IC50 (DENV-1) [µM] | IC50 (DENV-2) [µM] | IC50 (DENV-4) [µM] | IC50 (DENV-3) [µM] | Vesicle rupture time, calcein (Cal) dye release ([1]; 100 nM peptide) [min] | Vesicle rupture time, rhodamine (Rh) dye release ([1]; 100 nM peptide) [min] | Vesicle rupture time, calcein (Cal) dye release ([1]; 1000 nM peptide) [min] | Vesicle rupture time, rhodamine (Rh) dye release ([1]; 1000 nM peptide) [min] | Dependence of vesicle rupture on vesicle size (membrane-curvature sensing), single-vesicle analysis ([1]; small and large tethered vesicles) |
| --- | --- | --- | --- | --- | --- | --- | --- | --- | --- |
| DGNWLYDIWNWVCTVLADFKLWLGAKI [Peptide N9N] | 0.0969 | 0.55 | 0.0802 | 0.477 |  |  |  |  |  |
| SGSWLRDIWDWICEVLSDFKTWLKAKL [Peptide N1O] | 0.219 | 0.363 | 0.293 | 0.974 |  |  |  |  |  |
| SGSWLRDVWDWICTVLTDFKTWLQSKL [O2O] (not fully specified) [Peptide O2O, Peptide 2 with O and O terminal endings] |  |  |  |  |  |  |  |  | have membrane-curvature sensing mechanisms |
| SGDWLRIIWDWVCSVVSDFKTWLSAKI [Peptide O6O] | 0.068 | 0.412 | 0.273 | 0.334 |  |  |  |  |  |
| SGSWLRDIWEWVCSILTDFKNWLSAKL [Peptide N4O] | 0.278 | 0.556 | 0.333 | 2.79 |  |  |  |  |  |
| SDDWLRIIWDWVCSVVSDFKAWLSAKI [Peptide N5N] | 0.237 | 0.545 | 0.338 | 1.38 |  |  |  |  |  |
| DGNWLYDIWNWVCTVLADFKLWLGAKI [Peptide N9O] | 0.139 | 0.185 | 0.24 | 0.263 |  |  |  |  |  |
| SGSWLRDIWEWVCSILTDFKNWLSAKL (Synthetic_Anti-viral peptide derived from hepatitis C virus NS5A protein) [Peptide 4] |  |  |  |  | 6.50 ± 0.3 | 21.13 ± 0.38 | 3.71 ± 0.07 | 9.51 ± 0.09 |  |
| AESWLWEVWDWVLHVLSDFKTCLKAKF [Peptide O100] | 0.0603 | 0.396 | 0.567 | 0.316 |  |  |  |  |  |
| GDDWLHDIWDWVCIVLSDFKTWLSAKI (Synthetic_Anti-viral peptide derived from hepatitis C virus NS5A protein) [Peptide 8] |  |  |  |  | 2.49 ± 0.06 | 3.28 ± 0.08 | 1.70 ± 0.02 | 1.78 ± 0.02 |  |
| SGSWLRDIWDWICEVLSDFKTWLKAKL [Peptide O1O] | 0.132 | 0.242 | 0.287 | 0.175 |  |  |  |  |  |
| SGDWLRIIWDWVCSVVSDFKTWLSAKI (Synthetic_Anti-viral peptide derived from hepatitis C virus NS5A protein) [Peptide 6] |  |  |  |  | 2.46 ± 0.02 | 4.75 ± 0.06 | 1.57 ± 0.03 | 2.74 ± 0.03 |  |
| GDDWLHDIWDWVCIVLSDFKTWLSAKI [Peptide N8N] | 0.0974 | 0.253 | 0.194 | 0.271 |  |  |  |  |  |
| SGDWLRIIWDWVCSVVSDFKTWLSAKI [Peptide N6N] | 0.162 | 0.536 | 0.165 | 2.78 |  |  |  |  |  |
| SGSWLRDVWDWVCTILTDFKNWLTSKL [Peptide O3O] | 0.148 | 0.292 | 0.267 | 0.237 |  |  |  |  |  |
| AESWLWEVWDWVLHVLSDFKTCLKAKF (Synthetic_Anti-viral peptide derived from hepatitis C virus NS5A protein) [Peptide 10] |  |  |  |  | 2.38 ± 0.05 | 10.09 ± 0.10 | 2.06 ± 0.02 | 2.09 ± 0.05 |  |
| DGNWLYDIWNWVCTVLADFKLWLGAKI (Synthetic_Anti-viral peptide derived from hepatitis C virus NS5A protein) [Peptide 9] |  |  |  |  | 4.22 ± 0.17 | 6.50 ± 0.07 | 1.41 ± 0.03 | 1.87 ± 0.014 |  |
